Experimental data reported in US20250170176A1, “METHODS OF TREATMENT WITH CAR CELLS IN COMBINATION WITH S1P RECEPTOR MODULATORS” (PRIOTHERA SAS, priority 2022, published 2025).

Assays:
[1] = tested on: absolute lymphocyte counts; conditions: healthy volunteers; multiple dose applications for 28 days; cited from earlier work
CAR-T cells [2] = assay: CAR-T cell activation markers by flow cytometry in leukemia mice (Example 1); type: in vivo, mouse (C57BL/6J); conditions: KRP203 administered from day −1
Text: 6 to 8-week-old C57BL/6J male mice were obtained from Envigo. Ubi-GFP RAG1−/−OT-I TCR mice were bred and crossed in our animal facility under specific pathogen-free conditions. All experiments were approved by Institut Pasteur's Safety Committee in accordance with French and European guidelines (CETEA 2017-0038). Immortalized pro-B cells were generated by infecting bone marrow cells with a retrovirus encoding viral-Abelson kinase (v-abl). This tumor cell line was then retrovirally transduced to express a fluorescence resonance energy transfer (FRET)-based reporter for caspase 3 activity. Mice were examined every day and sacrificed in case of prostration, tousled hair, weakness or nodal tumor mass >1 cm. Cells were cultured in RPMI medium 1640-GlutaMAX™ supplemented with 10% heat-inactivated fetal bovine serum, 50 U·mL-1 penicillin, 50 μg·mL-1 streptomycin, 1 mM sodium pyruvate, 10 mM HEPES and 50 μM 2-mercaptoethanol, and maintained at 37° C. and 5% CO2. Cells were routinely tested for the absence of Mycoplasma contamination (Venor-GeM Advance mycoplasma detection kit, Minerva Biolabs). […]
For ex vivo analysis, bone marrow cells were isolated by flushing femurs and tibias from tumor-bearing mice and subsequent filtering through 70 μm cell strainers. […] Analyses were performed using a Cytoflex LX (Beckman Coulter) flow cytometer and analyzed with FlowJo v10.8.0 (BD). […]

CAR-T cells [3] = assay: Absolute numbers of CAR-T cells in blood (Example 3); type: in vivo, mouse (NCG); conditions: mocravimod with CAR-T cells
Protocol: (§1) To determine the kinetics of cytokine secretion and to evaluate the effectiveness of mocravimod in reducing the level of circulating cytokines when administered in combination with CAR T cells, NOD CRISPR Prkdc 112r Gamma (NCG) mice were injected i.v. with 5×10^6 JEKO-1-luc-GFP tumor cells. Treatment with either mocravimod or vehicle started on day 6 after tumor cell engraftment. Mocravimod (3 mg/kg) was administered every second day. 0.75×10^6 CAR T cells were injected i.v. on day 7 after tumor cell engraftment. Mice were bled 24 h, 48 h, 72 h, 96 h and 120 h post CAR T cell injection and plasma was collected. Interferon-g (IFN-g), Tumor necrosis factor-a (TNF-α) and Interleukin-2 (IL-2) were analyzed in plasma samples using the BD CBA Human Th1/Th2/Th17 cytokine assay. CAR T cells were phenotyped and enumerated in blood.
The same protocol as example 1 has been conducted for the method of analyzing CAR-T cells in bone marrow and the same protocol as the cytokine assay has been conducted for the method of analyzing CAR-T cells in blood.

IFN-g, TNF-α and IL-2 = assay: Kinetics of plasma cytokines (BD CBA Human Th1/Th2/Th17) in JEKO-1 bearing NCG mice given CAR T cells (Example 3); type: in vivo, mouse (NCG); conditions: 5 days after CAR-T cells; mocravimod 3 mg/kg every second day from day 6
Protocol: as §1

SMILES	Recovery of absolute lymphocyte counts to 80% of normal counts reached after [1] [days]	percentage of activation of CAR-T cells in lymph nodes, increase in comparison to the control (CAR-T cells [2])	absolute number of CAR-T cells in blood (CAR-T cells [3]; day 1 after CAR-T injection)	absolute number of CAR-T cells in blood (CAR-T cells [3]; day 3 after CAR-T injection)	absolute number of CAR-T cells in blood (CAR-T cells [3]; day 5 after CAR-T injection)	level of IFN-g in blood (plasma) (IFN-g, TNF-α and IL-2)	level of IL-2 in blood (plasma) (IFN-g, TNF-α and IL-2)	level of TNFa in blood (plasma) (IFN-g, TNF-α and IL-2)
CCc1cc(/C(C)=N/OCc2ccc(C3CCCCC3)c(C(F)(F)F)c2)ccc1CN1CC(C(=O)O)C1 [BAF312]	7	–	–	–	–	–	–	–
NC(CO)(CO)CCc1ccc(Sc2cccc(OCc3ccccc3)c2)cc1Cl [mocravimod, 2-amino-2-[4-(3-benzyloxyphenylthio)-2-chlorophenyl]ethyl-propane-1,3-diol]	–	2-3 times	around 500	around 500	around 100	around 100 μg/mL	around 2 μg/mL	around 0 μg/mL
